Measured values as given in patent US20160145247A1, “Aminomethyl-Biaryl Derivatives Complement Factor D inhibitors and uses thereof” (NOVARTIS AG, priority 2013, published 2016).

Molecular target: T1, factor D (Homo sapiens, UniProt P00746)
T1 construct: made in house; host or cells: E. coli
Assay: factor D inhibition assay of Biological Example 2
Type: biochemical

T1 sequence (P00746 26-253): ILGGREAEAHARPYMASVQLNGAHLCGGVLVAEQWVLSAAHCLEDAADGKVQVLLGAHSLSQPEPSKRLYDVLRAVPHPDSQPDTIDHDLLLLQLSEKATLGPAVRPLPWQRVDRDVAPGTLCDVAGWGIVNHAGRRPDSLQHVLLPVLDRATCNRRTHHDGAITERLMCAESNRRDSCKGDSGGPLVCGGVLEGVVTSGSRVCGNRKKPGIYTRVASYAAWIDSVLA

Work on `NCc1cc(F)cc(-c2cc(NC[C@H]3CCCO3)cc(C(=O)Nc3ccccc3CC(=O)O)c2)c1` [Example 14-D] yielded an IC50 of 21 nM.

In the case of `COCCNc1cc(C(=O)Nc2ccccc2CC(=O)O)cc(-c2cc(F)cc(CN)c2)c1` [Example 14-E], the IC50 is reported as 10 nM.

`NCc1cc(F)cc(-c2cc(OC[C@@H]3CCCO3)cc(C(=O)Nc3ccccc3CC(=O)O)c2)c1` [Example 15-B, (S)-2-(2-(3′-(Aminomethyl)-5′-fluoro-5-((tetrahydrofuran-2-yl)methoxy)-[1,1′-biphenyl]-3-ylcarboxamido)phenyl)acetic acid] was tested, and the IC50 was 9 nM.

`NCc1cccc(-c2cccc(C#Cc3ccccc3CC(=O)O)c2)c1` [Example 16-C, 2-(2-((3′-(Aminomethyl)-[1,1′-biphenyl]-3-yl)ethynyl)phenyl)acetic acid] gave an IC50 of 338 nM.

Compound `NCc1cccc(-c2cccc(CCc3ccccc3CC(=O)O)c2)c1` [Example 16-D, 2-(2-(2-(3′-(Aminomethyl)-[1,1′-biphenyl]-3-yl)ethyl)phenyl)acetic acid] has an IC50 of 470 nM.

For `NCc1cccc(-c2cccc(C(=O)Nc3cc(Cl)ccc3CC(=O)O)c2)c1` [Example 17-B, 2-(2-(3′-(Aminomethyl)-[1,1′-biphenyl]-3-ylcarboxamido)-4-chlorophenyl)acetic acid], the IC50 was 399 nM.

For `NCc1cc(F)cc(-c2cccc(C(=O)Nc3ccc(Br)cc3CC(=O)O)c2)c1` [Example 18-B, 2-(2-(3′-(Aminomethyl)-5′-fluoro-[1,1′-biphenyl]-3-ylcarboxamido)-5-bromophenyl)acetic acid], the IC50 was 8790 nM.

`NCc1cc(F)cc(-c2cccc(C(=O)Nc3ccccc3CC(=O)O)n2)c1` [Example 20-B, 2-(2-(6-(3-(Aminomethyl)-5-fluorophenyl)picolinamido)phenyl)acetic acid] was tested, and the IC50 was 16 nM.

`NCc1cc(F)cc(-c2cccc(C(=O)Nc3cc(Br)ccc3CC(=O)O)c2)c1` [Example 21-A] was tested, and the IC50 was 414 nM.

With `Cc1ccc(CC(=O)O)c(NC(=O)c2cccc(-c3cc(F)cc(CN)c3)c2)c1` [Example 21-B] the IC50 was 47 nM.

Compound `Cc1cccc(CC(=O)O)c1NC(=O)c1cccc(-c2cc(F)cc(CN)c2)c1` [Example 21-C] has an IC50 of 109 nM.

For `NCc1cc(F)cc(-c2cccc(C(=O)Nc3c(F)cccc3CC(=O)O)c2)c1` [Example 21-D], the IC50 was 989 nM.

In the case of `NCc1cc(F)cc(-c2cccc(C(=O)Nc3c(Br)cccc3CC(=O)O)n2)c1` [Example 21-E], the IC50 is reported as 86 nM.

Work on `NCc1cc(F)cc(-c2cccc(C(=O)Nc3cccc(Cl)c3CC(=O)O)c2)c1` [Example 21-F] yielded an IC50 of 3120 nM.

Work on `NCc1cc(F)cc(-c2cccc(C(=O)Nc3cccc(Br)c3CC(=O)O)c2)c1` [Example 21-G] yielded an IC50 of 7680 nM.

Work on `Cc1cccc(NC(=O)c2cccc(-c3cc(F)cc(CN)c3)c2)c1CC(=O)O` [Example 21-H] yielded an IC50 of 940 nM.

Work on `NCc1cc(F)cc(-c2cccc(C(=O)Nc3cc(F)ccc3CC(=O)O)c2)c1` [Example 21-I] yielded an IC50 of 469 nM.

Compound `NCc1cc(F)cc(-c2cccc(C(=O)Nc3ccc(F)cc3CC(=O)O)c2)c1` [Example 21-J] has an IC50 of 517 nM.

Compound `COc1cccc(CC(=O)O)c1NC(=O)c1cccc(-c2cc(F)cc(CN)c2)c1` [Example 21-K] has an IC50 of 126 nM.

`CCc1ccc(NC(=O)c2cccc(-c3cc(F)cc(CN)c3)n2)c(CC(=O)O)c1` [Example 21-L] was tested, and the IC50 was 105 nM.

In the case of `Cc1ccc(CC(=O)O)c(NC(=O)c2cccc(-c3cc(F)cc(CN)c3)n2)c1` [Example 21-M], the IC50 is reported as 22 nM.

In the case of `NCc1cc(F)cc(-c2cccc(C(=O)Nc3c(Cl)cccc3CC(=O)O)n2)c1` [Example 21-N], the IC50 is reported as 138 nM.

`CCc1ccc(CC(=O)O)c(NC(=O)c2cccc(-c3cc(F)cc(CN)c3)n2)c1` [Example 21-O] was tested, and the IC50 was 12 nM.

`NCc1cc(F)cc(-c2cccc(C(=O)Nc3ccc(Cl)cc3CC(=O)O)n2)c1` [Example 21-P] was tested, and the IC50 was 118 nM.

`COc1ccc(CC(=O)O)c(NC(=O)c2cccc(-c3cc(F)cc(CN)c3)n2)c1` [Example 21-Q] was tested, and the IC50 was 22 nM.

In the case of `Cc1ccc(NC(=O)c2cccc(-c3cc(F)cc(CN)c3)c2)c(CC(=O)O)c1` [Example 22-C, 2-(2-(3′-(aminomethyl)-5′-fluoro-[1,1′-biphenyl]-3-ylcarboxamido)-5-methylphenyl)acetic acid], the IC50 is reported as 835 nM.

With `CCc1ccc(NC(=O)c2cccc(-c3cc(F)cc(CN)c3)c2)c(CC(=O)O)c1` [Example 23-C, 2-(2-(3′-(Aminomethyl)-5′-fluoro-[1,1′-biphenyl]-3-ylcarboxamido)-5-ethylphenyl)acetic acid] the IC50 was 396 nM.

`CC(O)c1ccc(NC(=O)c2cccc(-c3cc(F)cc(CN)c3)c2)c(CC(=O)O)c1` (centres unmarked) [Example 24, 2-(2-(3′-(Aminomethyl)-5′-fluoro-[1,1′-biphenyl]-3-ylcarboxamido)-5-(1-hydroxyethyl)phenyl)acetic acid] gave an IC50 of 1740 nM.

For `CCc1ccc(NC(=O)c2cc(NC[C@@H]3CCCO3)cc(-c3cc(F)cc(CN)c3)c2)c(CC(=O)O)c1` [Example 25-D, (S)-2-(2-(3′-(Aminomethyl)-5′-fluoro-5-(((tetrahydrofuran-2-yl)methyl)amino)-[1,1′-biphenyl]-3-ylcarboxamido)-5-ethylphenyl)acetic acid], the IC50 was 11 nM.

In the case of `NCc1cccc(-c2csc(C(=O)Nc3ccccc3CC(=O)O)n2)c1` [Example 26-B, 2-(2-(4-(3-(Aminomethyl)phenyl)thiazole-2-carboxamido)phenyl)acetic acid], the IC50 is reported as 94 nM.

For `NCc1cccc(-c2nc(C(=O)Nc3ccccc3CC(=O)O)cs2)c1` [Example 27, 2-(2-(2-(3-(Aminomethyl)phenyl)thiazole-4-carboxamido)phenyl)acetic acid], the IC50 was 50 nM.

With `NCc1cc(F)cc(-c2csc(C(=O)Nc3ccccc3CC(=O)O)n2)c1` [Example 28-B, 2-(2-(4-(3-(aminomethyl)-5-fluorophenyl)thiazole-2-carboxamido)phenyl)acetic acid] the IC50 was 57 nM.

`NCc1cc(F)cc(-c2nc(C(=O)Nc3ccccc3CC(=O)O)cs2)c1` [Example 29, 2-(2-(2-(3-(aminomethyl)-5-fluorophenyl)thiazole-4-carboxamido)phenyl)acetic acid] was tested, and the IC50 was 62 nM.

In the case of `NCc1cc(F)cc(-c2nc(C(=O)Nc3ccccc3CC(=O)O)c(Cl)s2)c1` [Example 30-D, 2-(2-(2-(3-(aminomethyl)-5-fluorophenyl)-5-chlorothiazole-4-carboxamido)phenyl)acetic acid], the IC50 is reported as 31 nM.

Compound `CNc1sc(-c2cc(F)cc(CN)c2)nc1C(=O)Nc1ccccc1CC(=O)O` [Example 31-B, 2-(2-(2-(3-(aminomethyl)-5-fluorophenyl)-5-(methylamino)thiazole-4-carboxamido)phenyl)acetic acid] has an IC50 of 16 nM.

In the case of `NCc1cc(F)cc(-c2nc(C(=O)Nc3ccccc3CC(=O)O)c(N3CCOCC3)s2)c1` [Example 32, 2-(2-(2-(3-(aminomethyl)-5-fluorophenyl)-5-morpholinothiazole-4-carboxamido)phenyl)acetic acid], the IC50 is reported as 49 nM.

Work on `NCc1cc(F)cc(-c2nc(C(=O)Nc3ccccc3CC(=O)O)c(NC[C@@H]3CCCO3)s2)c1` [Example 33, (S)-2-(2-(2-(3-(Aminomethyl)-5-fluorophenyl)-5-(((tetrahydrofuran-2-yl)methyl)amino)thiazole-4-carboxamido)phenyl)acetic acid] yielded an IC50 of 7 nM.

With `CNc1sc(-c2cc(F)cc(CN)c2)nc1C(=O)Nc1cc(C)ccc1CC(=O)O` [Example 34-C, 2-(2-(2-(3-(Aminomethyl)-5-fluorophenyl)-5-(methylamino)thiazole-4-carboxamido)-4-methylphenyl)acetic acid] the IC50 was 5 nM.

`NCc1cc(F)cc(-c2nc(C(=O)Nc3ccccc3CC(=O)O)c(C3CC3)s2)c1` [Example 35-B, 2-(2-(2-(3-(Aminomethyl)-5-fluorophenyl)-5-cyclopropylthiazole-4-carboxamido)phenyl)acetic acid] was tested, and the IC50 was 13 nM.

Work on `CCc1sc(-c2cc(F)cc(CN)c2)nc1C(=O)Nc1ccccc1CC(=O)O` [Example 36-C, 2-(2-(2-(3-(Aminomethyl)-5-fluorophenyl)-5-ethylthiazole-4-carboxamido)phenyl)acetic acid] yielded an IC50 of 36 nM.

With `NCc1cccc(-c2cccc(C(=O)Nc3ccccc3CC(=O)O)c2)c1F` [Example 37, 2-(2-(3′-(Aminomethyl)-2′-fluoro-[1,1′-biphenyl]-3-ylcarboxamido)phenyl)acetic acid] the IC50 was 41 nM.

With `NCc1cccc(-c2cc(C(=O)Nc3ccccc3CC(=O)O)ccn2)c1` [Example 38, 2-(2-(2-(3-(Aminomethyl)phenyl)isonicotinamido)phenyl)acetic acid] the IC50 was 14300 nM.

For `NCc1cccc(-c2ccnc(C(=O)Nc3ccccc3CC(=O)O)c2)c1` [Example 39, 2-(2-(4-(3-(Aminomethyl)phenyl)picolinamido)phenyl)acetic acid], the IC50 was 40500 nM.

`NCc1cccc(-c2cncc(C(=O)Nc3ccccc3CC(=O)O)c2)c1` [Example 40, 2-(2-(5-(3-(Aminomethyl)phenyl)nicotinamido)phenyl)acetic acid] gave an IC50 of 12800 nM.

`NCc1cccc(-c2cc(Cl)cc(C(=O)Nc3ccccc3CC(=O)O)n2)c1` [Example 41, 2-(2-(6-(3-(Aminomethyl)phenyl)-4-chloropicolinamido)phenyl)acetic acid] showed an IC50 of 74 nM.

For `NCc1cccc(-c2cc(C(=O)Nc3ccccc3CC(=O)O)nc(-c3cccc(CN)c3)c2)c1` [Example 42, 2-(2-(4,6-bis(3-(Aminomethyl)phenyl)picolinamido)phenyl)acetic acid], the IC50 was 13 nM.

`NCc1cccc(-c2nc(C(=O)Nc3ccccc3CC(=O)O)c[nH]2)c1` [Example 43, 2-(2-(2-(3-(Aminomethyl)phenyl)-1H-imidazole-4-carboxamido)phenyl)acetic acid] gave an IC50 of 1130 nM.

`NCc1cccc(-c2cc(N3CCOCC3)cc(C(=O)Nc3ccccc3CC(=O)O)n2)c1` [Example 44, 2-(2-(6-(3-(Aminomethyl)phenyl)-4-morpholinopicolinamido)phenyl)acetic acid] was tested, and the IC50 was 9 nM.

In the case of `NCc1cccc(-c2cc(NC[C@@H]3CCCO3)cc(C(=O)Nc3ccccc3CC(=O)O)n2)c1` [Example 45, (S)-2-(2-(6-(3-(Aminomethyl)phenyl)-4-(((tetrahydrofuran-2-yl)methyl)amino)picolinamido)phenyl)acetic acid], the IC50 is reported as 12 nM.

`CNc1cc(C(=O)Nc2ccccc2CC(=O)O)nc(-c2cccc(CN)c2)c1` [Example 46, 2-(2-(6-(3-(aminomethyl)phenyl)-4-(methylamino)picolinamido)phenyl)acetic acid] showed an IC50 of 6 nM.
